For series [1], the system named is BT474. Description: Cytotoxicity assay (SRB), BT474. The conditions noted are these: Homo sapiens, BT-474, 144 h, BT474 cells, SRB, 6 days; read-out: In Vitro Cellular Activity IC50 BT474. The format is cell-based. In a few lines:
(§1)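 Cells seeded overnight at 37 °C, 7% CO2 (BT474 12000, HCT-116 4000, LoVo and MCF-7 6000 cells/well) in RPMI 1640 with 5% FBS, then exposed to compound dilutions for 3 days (BT474 6 days). Survival versus untreated controls by TCA fixation and SRB staining, absorbance 540 nm.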

The test system of series [2] is HCT-116. The series is described as follows: Cytotoxicity assay (SRB), HCT-116. The conditions noted are these: Homo sapiens, HCT-116, 72 h, HCT116 cells, SRB, three days; read-out: In Vitro Cellular Activity IC50 HCT116. The format is cell-based. The procedure, abridged:
as §1

For series [3], the system named is LoVo. The series is described as follows: Cytotoxicity assay (SRB), LoVo. Format: cell-based. The conditions noted are these: Homo sapiens, LoVo, 72 h, LoVo cells, SRB, three days; read-out: In Vitro Cellular Activity IC50 LOVO. In a few lines: as §1
For series [4], the system named is MCF-7. The series is described as follows: Cytotoxicity assay (SRB), MCF-7. The format is cell-based. The conditions noted are these: Homo sapiens, MCF7, 72 h, MCF-7 cells, SRB, three days; read-out: In Vitro Cellular Activity IC50 MCF-7. In a few lines:
as §1

Molecules are shown by their SMILES. pIC50: −log10 of the molar value. Some results are limits rather than exact numbers.

The term melting point denotes the temperature of the solid-liquid transition. On to `COc1ccc(-c2ccc3c(c2)/C(=C/Nc2ccc(CN4CCCCC4)cc2)C(=O)NC3=O)cc1` (hydrate or solvate) [Example 116, (4Z)-6-(4-Methoxyphenyl)-4-({[4-(piperidin-1-ylmethyl)phenyl]amino}methylene)-isoquinoline-1,3(2H,4H)-dione], for which the melting point fell in the range of 168 to 169 °C.

The molecule `COc1cccc(-c2ccc3c(c2)/C(=C/Nc2ccc(CN4CCCCC4)cc2)C(=O)NC3=O)c1` (hydrate or solvate) [Example 117, (4Z)-6-(3-Methoxyphenyl)-4-({[4-(piperidin-1-ylmethyl)phenyl]amino}methylene)-isoquinoline-1,3(2H,4H)-dione] registered a melting point of 169 to 170 °C.

The molecule `CN1CCN(c2ccc(N/C=C3\C(=O)NC(=O)c4ccc(-c5ccc(C=O)o5)cc43)cc2)CC1` (hydrate or solvate) [Example 124, 5-[(4Z)-4-({[4-(4-Methylpiperazin-1-yl)phenyl]amino}methylene)-1,3-dioxo-1,2,3,4-tetrahydroisoquinolin-6-yl]-2-furaldehyde] showed a melting point of 218 to 220 °C.

Consider `O=C1NCc2ccccc2/C1=C/Nc1ccc(-c2c[nH]cn2)cc1` [Example 3, (4Z)-4-({[4-(1H-Imidazol-4-yl)phenyl]amino}methylene)-1,4-dihydro-3(2H)-isoquinolinone], for which the melting point was 151 to 152 °C (dec.).

`O=C1NC(=O)c2ccccc2/C1=C/Nc1ccc2cn[nH]c2c1` [Example 7, (4Z)-4-[(1H-Indazol-6-ylamino)methylene]isoquinoline-1,3(2H,4H)-dione] displayed a melting point greater than 300 °C.

For the molecule `O=C1NC(=O)c2ccc(Br)cc2/C1=C/NCc1cccnc1` [Example 30, (4Z)-6-Bromo-4-{[(pyridin-3-ylmethyl)amino]methylene}isoquinoline-1,3(2H,4H)-dione], the melting point was in the range of 299 to 300 °C.

For the molecule `O=C1NC(=O)c2ccc([N+](=O)[O-])cc2/C1=C/Nc1ccc(CN2CCCCC2)cc1` [Example 42, (4Z)-6-Nitro-4-{[(4-piperidin-1-ylmethyl)phenyl]amino}methyleneisoquinoline-1,3(2H,4H)-dione], the melting point was 225 to 235 °C (dec.).

As usually defined, the pIC50 is the IC50 on a negative log10 scale, so that one unit is a factor of ten. `O=C1NC(=O)c2ccc(Br)cc2/C1=C/NCCc1c[nH]c2ccccc12` [Example 43, (4Z)-6-Bromo-4-({[2-(1H-indol-3-yl)ethyl]amino}methylene)isoquinoline-1,3(2H,4H)-dione] returned a melting point of 278 to 280 °C. Besides, in series [1], the pIC50 is 4.39. Also, the pIC50 in series [2] is 4.59. Besides, in series [3], the pIC50 was less than 4.30. The pIC50 in series [4] is less than 4.30.

Molecule `CN1CCN(c2ccc(N/C=C3\C(=O)NC(=O)c4ccc(C(=O)O)cc43)cc2)CC1` [Example 51, (4Z)-4-({[4-(4-Methylpiperazin-1-yl)phenyl]amino}methylene)-1,3-dioxo-1,2,3,4-tetrahydroisoquinoline-6-carboxylic acid] registered a melting point of 278 to 280 °C.

As for `O=C1NC(=O)c2ccc(Br)cc2/C1=C/NCc1ccc(Cl)cc1` [Example 53, (4Z)-6-Bromo-4-{[(4-chlorobenzyl)amino)methylene}isoquinoline-1,3(2H,4H)-dione], the melting point was in the range of 234 to 235 °C. In addition, the negative logarithm of the IC50 (pIC50) in series [1] was 4.43. Moreover, the pIC50 in series [2] was 4.49. Besides, the pIC50 in series [3] was less than 4.30. Further, in series [4], the pIC50 was less than 4.30.

For the molecule `COc1ccc(CN/C=C2\C(=O)NC(=O)c3ccc(Br)cc32)cc1OC(C)=O` [Example 57, 5-({[(Z)-(6-Bromo-1,3-dioxo-2,3-dihydroisoquinolin-4(1H)-ylidene)methyl]amino}methyl)-2-methoxyphenyl acetate], the melting point fell in the range of 226 to 227 °C. Besides, in series [1], the pIC50 was 5.43. The pIC50 in series [2] was 5.02. In series [3], the pIC50 is 5.28. Further, in series [4], the pIC50 is less than 4.30.

`O=C1NC(=O)c2ccc(-c3ccc(Oc4ccccc4)cc3)cc2/C1=C/Nc1ccc(CN2CCCCC2)cc1` [Example 101] registered a melting point of 132 to 133 °C. In addition, the pIC50 in series [1] is 5.54. Moreover, the pIC50 in series [2] is 5.92. Besides, the pIC50 in series [3] was 5.37. Further, in series [4], the pIC50 is 5.49.

`O=C1NC(=O)c2ccc(Br)cc2/C1=C/NCc1ccc2c(c1)OCO2` [Example 109, (4Z)-4-{[(1,3-Benzodioxol-5-ylmethyl)amino]methylene}-6-bromoisoquinoline-1,3(2H,4H)-dione] gave a melting point of 227 to 228 °C. In addition, the pIC50 in series [1] was 4.46. For the same molecule, the pIC50 in series [2] was 4.77. Further, in series [3], the pIC50 is less than 4.30. For the same molecule, in series [4], the pIC50 is less than 4.30.

For the molecule `N#Cc1ccc2c(c1)/C(=C/Nc1ccc(CN3CCCCC3)cc1)C(=O)NC2=O` [Example 110, (4Z)-1,3-Dioxo-4-({[4-(piperidin-1-ylmethyl)phenyl]amino}methylene)1,2,3,4-tetrahydroisoquinoline-6-carbonitrile], the melting point was 254 to 256 °C (dec.). Also, the pIC50 in series [1] is 5.46. Moreover, the pIC50 in series [2] is 5.80. In addition, the pIC50 in series [3] is 5.60. Moreover, the pIC50 in series [4] is 5.24.

Take `COC[C@H]1CCCN1c1ccc2c(c1)/C(=C/Nc1ccc(CN3CCCCC3)cc1)C(=O)NC2=O` [Example 121, (4Z)-6-[(2R)-2-(Methoxymethyl)pyrrolidin-1-yl]-4-({[4-(piperidin-1-ylmethyl)phenyl]amino}methylene)isoquinoline-1,3(2H,4H)-dione]: the melting point lay in the range of 135 to 136 °C. For the same molecule, the pIC50 in series [1] was 5.11. Further, the negative logarithm of the IC50 (pIC50) in series [2] is 5.26. In addition, the pIC50 in series [3] is 5.42. Also, the pIC50 in series [4] was 5.34.

As for `COc1ccc(CN/C=C2\C(=O)NC(=O)c3cc(Br)ccc32)cc1O` [Example 135, (4Z)-7-Bromo-4-{[(3-hydroxy-4-methoxybenzyl)amino]methylene}isoquinoline-1,3(2H,4H)-dione], the melting point is 297 to 298 °C. In addition, in series [1], the negative logarithm of the IC50 (pIC50) was less than 4.30. The negative-log IC50 (pIC50) in series [2] is 4.51. Also, in series [3], the pIC50 was less than 4.30. The pIC50 in series [4] was less than 4.30.

`CN1CCN(c2ccc(NC=C3C(=O)NC(=O)c4ccc(OCCN5CCOCC5)cc43)cc2)CC1` [Example 155, 4-{[4-(4-Methyl-piperazin-1-yl)-phenylamino]-methylene}-6-(2-morpholin-4-yl-ethoxy)-4H-isoquinoline-1,3-dione] came in with a melting point of 142 to 143 °C. Further, in series [1], the pIC50 is 4.66. Further, the pIC50 in series [2] was 4.77. Besides, in series [3], the pIC50 is 4.72. Moreover, the pIC50 in series [4] was 4.59.

The molecule `Cc1ccc(CN/C=C2\C(=O)NC(=O)c3ccc(I)cc32)cc1O` [Example 157, (4Z)-4-{[(4-Methyl-3-hydroxybenzyl)amino]methylene}-6-iodoisoquinoline-′1,3(2H,4H)-dione] returned a melting point of 312 to 313 °C. Further, the pIC50 in series [1] was 4.72. Also, the negative-log IC50 (pIC50) in series [2] was 5.17. Also, in series [3], the pIC50 was 4.66. Moreover, the pIC50 in series [4] is 5.09.

`CN1CCN(c2ccc(N/C=C3\C(=O)NC(=O)c4ccc(C#CCOC5CCCCO5)cc43)cc2)CC1` (stereo not drawn) [Example 161, (4Z)-4-({[4-(4-Methylpiperazin-1-yl)phenyl]amino}methylene)-6-[3-(tetrahydro-2H-pyran-2-yloxy)prop-1-ynyl]isoquinoline-1,3(2H,4H)-dione] returned a melting point of 175 to 176 °C. The pIC50 in series [1] is 5.47. The pIC50 in series [2] was 5.66. Further, the pIC50 in series [3] was 5.19. Further, the pIC50 in series [4] was 5.40.

The values are drawn from patent US7713994B2 (Wyeth LLC, priority 2005, dated 2010).
